Experimental data: patent US11708338B2, “Substituted phenyl sulfonyl phenyl triazole thiones and uses thereof” (Neuropore Therapies, Inc., priority 2017, dated 2023)

Columns and labels:
Assay type in all cases: in vivo, mouse
[1] = test system: Translocator Protein (18 kDa) (TSPO); experiment: TSPO immunofluorescence in cortex of L41 APP transgenic mice; conditions: 5 mg/kg daily i.p.
Experimental: Neuroinflammation is associated with increased expression of the 18-kDa translocator protein (TSPO), which is present on the mitochondria of activated microglia, astroglia and macrophages (Crawshaw and Robertson 2017). The effects of Compound 1 on TSPO expression were assessed in both L41 APP transgenic and non-transgenic mice in a 1 month administration study. L41 APP transgenic mice (36 total mice, n=8-11 mice per treatment group) were injected (i.p.) daily with 5 mg/kg of Compound 1 or a vehicle control (5% DMSO+20% Cremphor EL+0.9% normal saline) for […]. Non-transgenic mice (18 total mice, n=8-11 mice per treatment group) were used as a control and were injected daily (i.p.) with 10 mg/kg of Compound 1 (data not shown) or a vehicle control (5% DMSO+20% Cremphor EL+0.9% normal saline) for 1 month. After 30 days, the mice were sacrificed, and immunofluoresence (IF) detection of TSPO were assessed in the harvested brain tissues.
The harvested brain tissues were drop fixed using 4% PFA and sectioned on a vibratome, and representative sections corresponding to the neuropil of cortex were assessed for TSPO with standard immunofluorescence (IF) staining.

amyloid beta = experiment: Amyloid beta (6E10) immunostaining in brain of L41 APP transgenic mice; conditions: 5 mg/kg daily i.p.
Experimental: As described earlier, Line 41 transgenic mice express high levels of the mutant hAPP751 and develop mature plaques in the cortex, hippocampus, thalamus and olfactory region of mouse brain. The effects of Compound 1 on Amyloid beta plaque formation were assessed in both L41 APP transgenic and non-transgenic mice in a 1 month administration study. After 30 days, the mice were sacrificed, and immunofluorescence (IF) detection of amyloid beta were assessed in the harvested brain tissues.
The harvested brain tissues were drop fixed using 4% PFA and sectioned on a vibratome, and representative sections containing the neuropil of cortex, hippocampus and striatum were assessed for amyloid beta with standard IHC staining.
On approximately day 30, all subjects were euthanized within 2 hours of the last treatment and brain and other samples were collected. Brains were removed and divided sagitally. […]
Prepared slides were imaged at 40× using a high-resolution Hamamatsu Nanozoomer™ scanner located in the Microscopy Core in the UCSD Department of Neurosciences. Digital images were then transferred to Neuropore and analyzed using the Halo® imaging software package (Indica Labs, Corrales, N. Mex.). […] Images were evaluated for specimen and imaging problems and any issues were noted prior to unblinding of samples and statistical analyses.

[2] = test system: dopaminergic (DAT) transporter; experiment: DAT IHC immunolabeling in striatum, striatal-to-reference ratio; conditions: L61 ASYN transgenic mice, 3 months
Experimental: The harvested brain tissues were drop fixed using 4% PFA and sectioned on a vibratome, and representative sections corresponding to the striatum and cerebellum were assessed for DAT with IHC staining.
Immunolabeling studies of DAT were conducted using a monoclonal antibody (1:500; MAB369; Millipore, Temecula, Calif.) and a biotinylated secondary antibody (1:100; BA4000, Vector Labs) and analysis was performed on blindcoded sections from Line 61 transgenic and non-transgenic mice. Slides were digitized using a high resolution automated Nanozoomer slide scanner (Hamamatsu Corp.). Digitized images were analyzed using Halo (Indica Labs) image analysis software package by placing an ROI frame within the dorsal striatum and another within a separate reference brain region (for normalization of DAT signal). A thresholding algorithm was defined and then applied equally to all images to determine the average optical density of DAT immunolabeling across each ROI The results of the analysis were then exported for graphing and statistical analysis and the striatal DAT:cortical (reference region) DAT optical densities ratio was calculated for each subject.
Quantification of DAT density was carried out by calculating the immunofluorescence in striatal sections against that in cerebellum sections to derive a striatal-to-reference ratio.

O=S(=O)(c1ccc(-n2cn[nH]c2=S)cc1)c1ccc(Cl)c(C(F)(F)F)c1 [Compound 1, 4-(4-((4-chloro-3-(trifluoromethyl)phenyl)sulfonyl)phenyl)-2,4-dihydro-3H-1,2,4-triazole-3-thione]
cortical TSPO level vs vehicle-treated Line 41 mice, quantification (FIG. 20) [1]: reduces the TSPO level in a statistically significant manner
amyloid beta level vs vehicle-treated Line 41 mice, quantification (amyloid beta): reduces the amyloid beta level in a statistically significant manner
striatal levels of DAT, staining intensity in representative images (FIG. 18) vs vehicle-treated L61 mice ([2]; 5 mg/kg or 10 mg/kg daily): restoring striatal levels of DAT
DAT striatal-to-reference ratio, quantification (FIG. 19) ([2]; 10 mg/kg dose): reduces the GFAP levels in a statistically significant manner
